In patent publication US20230085307A1, “PYRIDAZINONE COMPOUND AND HERBICIDE” (NISSAN CHEMICAL CORPORATION, priority 2019, published 2023):

Key:
[1] = tested on: barnyard grass; assay: Test Example 3: herbicidal effect by foliage application, Wagner pot (Table 18, symbol H); assay type: in vivo, barnyard grass (Echinochloa crus-galli); settings: amount of applied herbicide 320 g/ha
Method in brief: (§1)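 Plants were sown in alluvial soil held under 0.1–0.5 cm standing water and grown 14 days in a greenhouse at 25–30 °C. An emulsifiable formulation, water-diluted to the set dose, was then sprayed onto the foliage, and effects were scored three weeks later using previously defined criteria.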

[2] = tested on: Chinese sprangletop; assay: Test Example 3: herbicidal effect by foliage application, Wagner pot (Table 18, symbol D); assay type: in vivo, chinese sprangletop (Leptochloa chinensis); settings: amount of applied herbicide 320 g/ha
Method in brief: as §1

[3] = tested on: rice flat sedge; assay: Test Example 3: herbicidal effect by foliage application, Wagner pot (Table 18, symbol E); assay type: in vivo, rice flat sedge (Cyperus iria); settings: amount of applied herbicide 320 g/ha
Method in brief: as §1

[4] = tested on: southern crabgrass; assay: Test Example 4: herbicidal effect by soil treatment (Table 19, symbol F); assay type: in vivo, southern crabgrass (Digitaria ciliaris); settings: amount of applied herbicide 320 g/ha
Method in brief: (§2)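 Emulsion of test compound, water-diluted to predetermined amount, sprayed on soil after sowing (seed depth ~1.5 cm, sterilized diluvial soil). Greenhouse, 25–30° C. Effect graded at three weeks post-spray.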

[5] = tested on: green foxtail; assay: Test Example 4: herbicidal effect by soil treatment (Table 19, symbol G); assay type: in vivo, green foxtail (Setaria viridis); settings: amount of applied herbicide 320 g/ha
Method in brief: as §2

[6] = tested on: barnyard grass; assay: Test Example 4: herbicidal effect by soil treatment (Table 19, symbol H); assay type: in vivo, barnyard grass (Echinochloa crus-galli); settings: amount of applied herbicide 320 g/ha
Method in brief: as §2

[7] = tested on: wild oat; assay: Test Example 4: herbicidal effect by soil treatment (Table 19, symbol I); assay type: in vivo, wild oat (Avena fatua); settings: amount of applied herbicide 320 g/ha
Method in brief: as §2

[8] = tested on: blackgrass; assay: Test Example 4: herbicidal effect by soil treatment (Table 19, symbol J); assay type: in vivo, blackgrass (Alopecurus myosuroides); settings: amount of applied herbicide 320 g/ha
Method in brief: as §2

[9] = tested on: Italian ryegrass; assay: Test Example 4: herbicidal effect by soil treatment (Table 19, symbol K); assay type: in vivo, Italian ryegrass (Lolium multiflorum); settings: amount of applied herbicide 320 g/ha
Method in brief: as §2

[10] = tested on: windgrass; assay: Test Example 4: herbicidal effect by soil treatment (Table 19, symbol L); assay type: in vivo, windgrass (Apera spica-venti); settings: amount of applied herbicide 320 g/ha
Method in brief: as §2

[11] = tested on: velvetleaf; assay: Test Example 4: herbicidal effect by soil treatment (Table 19, symbol M); assay type: in vivo, velvetleaf (Abutilon theophrasti); settings: amount of applied herbicide 320 g/ha
Method in brief: as §2

[12] = tested on: redroot pigweed; assay: Test Example 4: herbicidal effect by soil treatment (Table 19, symbol N); assay type: in vivo, redroot pigweed (Amaranthus retroflexus); settings: amount of applied herbicide 320 g/ha
Method in brief: as §2

[13] = tested on: lambsquarters; assay: Test Example 4: herbicidal effect by soil treatment (Table 19, symbol O); assay type: in vivo, lambsquarters (Chenopodium album); settings: amount of applied herbicide 320 g/ha
Method in brief: as §2

[14] = tested on: chickweed; assay: Test Example 4: herbicidal effect by soil treatment (Table 19, symbol P); assay type: in vivo, common chickweed (Stellaria media); settings: amount of applied herbicide 320 g/ha
Method in brief: as §2

[15] = tested on: persian speedwell; assay: Test Example 4: herbicidal effect by soil treatment (Table 19, symbol R); assay type: in vivo, Persian speedwell (Veronica persica); settings: amount of applied herbicide 320 g/ha
Method in brief: as §2

[16] = tested on: southern crabgrass; assay: Test Example 5: herbicidal effect by foliage application, plastic box (Table 20, symbol F); assay type: in vivo, southern crabgrass (Digitaria ciliaris); settings: foliage application, AAH 320 g/ha, evaluated three weeks after application
Method in brief: (§3)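 Post-emergence foliar test in sterilized diluvial soil. Compound applied as water-diluted emulsion at a predetermined rate to 14-day-old plants; evaluation at three weeks.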

[17] = tested on: green foxtail; assay: Test Example 5: herbicidal effect by foliage application, plastic box (Table 20, symbol G); assay type: in vivo, green foxtail (Setaria viridis); settings: foliage application, AAH 320 g/ha, evaluated three weeks after application
Method in brief: as §3

[18] = tested on: barnyard grass; assay: Test Example 5: herbicidal effect by foliage application, plastic box (Table 20, symbol H); assay type: in vivo, barnyard grass (Echinochloa crus-galli); settings: foliage application, AAH 320 g/ha, evaluated three weeks after application
Method in brief: as §3

[19] = tested on: wild oat; assay: Test Example 5: herbicidal effect by foliage application, plastic box (Table 20, symbol I); assay type: in vivo, wild oat (Avena fatua); settings: foliage application, AAH 320 g/ha, evaluated three weeks after application
Method in brief: as §3

[20] = tested on: blackgrass; assay: Test Example 5: herbicidal effect by foliage application, plastic box (Table 20, symbol J); assay type: in vivo, blackgrass (Alopecurus myosuroides); settings: foliage application, AAH 320 g/ha, evaluated three weeks after application
Method in brief: as §3

[21] = tested on: Italian ryegrass; assay: Test Example 5: herbicidal effect by foliage application, plastic box (Table 20, symbol K); assay type: in vivo, Italian ryegrass (Lolium multiflorum); settings: foliage application, AAH 320 g/ha, evaluated three weeks after application
Method in brief: as §3

[22] = tested on: windgrass; assay: Test Example 5: herbicidal effect by foliage application, plastic box (Table 20, symbol L); assay type: in vivo, windgrass (Apera spica-venti); settings: foliage application, AAH 320 g/ha, evaluated three weeks after application
Method in brief: as §3

[23] = tested on: velvetleaf; assay: Test Example 5: herbicidal effect by foliage application, plastic box (Table 20, symbol M); assay type: in vivo, velvetleaf (Abutilon theophrasti); settings: foliage application, AAH 320 g/ha, evaluated three weeks after application
Method in brief: as §3

[24] = tested on: redroot pigweed; assay: Test Example 5: herbicidal effect by foliage application, plastic box (Table 20, symbol N); assay type: in vivo, redroot pigweed (Amaranthus retroflexus); settings: foliage application, AAH 320 g/ha, evaluated three weeks after application
Method in brief: as §3

[25] = tested on: lambsquarters; assay: Test Example 5: herbicidal effect by foliage application, plastic box (Table 20, symbol O); assay type: in vivo, lambsquarters (Chenopodium album); settings: foliage application, AAH 320 g/ha, evaluated three weeks after application
Method in brief: as §3

[26] = tested on: chickweed; assay: Test Example 5: herbicidal effect by foliage application, plastic box (Table 20, symbol P); assay type: in vivo, common chickweed (Stellaria media); settings: foliage application, AAH 320 g/ha, evaluated three weeks after application
Method in brief: as §3

[27] = tested on: persian speedwell; assay: Test Example 5: herbicidal effect by foliage application, plastic box (Table 20, symbol R); assay type: in vivo, Persian speedwell (Veronica persica); settings: foliage application, AAH 320 g/ha, evaluated three weeks after application
Method in brief: as §3

## Cc1nn(C)c(=O)c(-c2c(-c3ccc(Cl)cc3Cl)sc3ccc(F)cc23)c1O [2-346]
[1]
  herbicidal effect on H: barnyard grass: 4 (Herbicidal rate of 70% or more and less than 90%)
[2]
  herbicidal effect on D: Chinese sprangletop: 3 (Herbicidal rate of 40% or more and less than 70%)
[3]
  herbicidal effect on E: rice flat sedge: 1 (Herbicidal rate of 5% or more and less than 20%)
[4]
  herbicidal effect on F: southern crabgrass: 0 (Herbicidal rate of 5% or less (almost no effect))
[5]
  herbicidal effect on G: green foxtail: 0 (Herbicidal rate of 5% or less (almost no effect))
[6]
  herbicidal effect on H: barnyard grass: 0 (Herbicidal rate of 5% or less (almost no effect))
[7]
  herbicidal effect on I: wild oat: 0 (Herbicidal rate of 5% or less (almost no effect))
[8]
  herbicidal effect on J: blackgrass: 0 (Herbicidal rate of 5% or less (almost no effect))
[9]
  herbicidal effect on K: Italian ryegrass: 0 (Herbicidal rate of 5% or less (almost no effect))
[10]
  herbicidal effect on L: windgrass: 0 (Herbicidal rate of 5% or less (almost no effect))
[11]
  herbicidal effect on M: velvetleaf: 0 (Herbicidal rate of 5% or less (almost no effect))
[12]
  herbicidal effect on N: redroot pigweed: 0 (Herbicidal rate of 5% or less (almost no effect))
[13]
  herbicidal effect on O: lambsquarters: 3 (Herbicidal rate of 40% or more and less than 70%)
[14]
  herbicidal effect on P: chickweed: 0 (Herbicidal rate of 5% or less (almost no effect))
[15]
  herbicidal effect on R: persian speedwell: 0 (Herbicidal rate of 5% or less (almost no effect))
[16]
  F: southern crabgrass, herbicidal effect (criteria 0-5): 0 (Herbicidal rate of 5% or less (almost no effect))
[17]
  G: green foxtail, herbicidal effect (criteria 0-5): 0 (Herbicidal rate of 5% or less (almost no effect))
[18]
  H: barnyard grass, herbicidal effect (criteria 0-5): 0 (Herbicidal rate of 5% or less (almost no effect))
[19]
  I: wild oat, herbicidal effect (criteria 0-5): 0 (Herbicidal rate of 5% or less (almost no effect))
[20]
  J: blackgrass, herbicidal effect (criteria 0-5): 0 (Herbicidal rate of 5% or less (almost no effect))
[21]
  K: Italian ryegrass, herbicidal effect (criteria 0-5): 3 (Herbicidal rate of 40% or more and less than 70%)
[22]
  L: windgrass, herbicidal effect (criteria 0-5): 2 (Herbicidal rate of 20% or more and less than 40%)
[23]
  M: velvetleaf, herbicidal effect (criteria 0-5): 1 (Herbicidal rate of 5% or more and less than 20%)
[24]
  N: redroot pigweed, herbicidal effect (criteria 0-5): 3 (Herbicidal rate of 40% or more and less than 70%)
[25]
  O: lambsquarters, herbicidal effect (criteria 0-5): 2 (Herbicidal rate of 20% or more and less than 40%)
[26]
  P: chickweed, herbicidal effect (criteria 0-5): 5 (Herbicidal rate of 90% or more (almost completely withered))
[27]
  R: persian speedwell, herbicidal effect (criteria 0-5): 4 (Herbicidal rate of 70% or more and less than 90%)
